Source: PubChem BioAssay AID1963984 (Molecular Pharmacology Branch, DTP, NCI, 2024)

System: 233499-124-R-J3-PDC spheroids with HUVEC/MSC, viability
Assay: Anticancer human tumor 233499-124-R-J3-PDC patient-derived colon adenocarcinoma cell line growth inhibition [PI3K]
Settings: for IC50: curve of first compound; for viability, T/C: stronger effect = lower value
Procedure, shortened: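 Spheroid viability read-out. Co-cultures contained the tumor line plus HUVEC and human MSCs. Each agent was paired with a PI3K inhibitor (inavolisib, alpelisib, duvelisib, copanlisib) across half-log dilutions starting at clinical Cmax, or at 10 microM when Cmax was unknown.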

[1] = second compound 0.0316 µM, first compound 0.0316 µM
[2] = second compound 0.0316 µM, first compound 0.1 µM
[3] = second compound 0.0316 µM, first compound 0.316 µM
[4] = second compound 0.0316 µM, first compound 1 µM
[5] = second compound 0.0316 µM, first compound 3.16 µM
[6] = second compound 0.0316 µM, first compound 10 µM
[7] = second compound 0.1 µM, first compound 0.0316 µM
[8] = second compound 0.1 µM, first compound 0.1 µM
[9] = second compound 0.1 µM, first compound 0.316 µM
[10] = second compound 0.1 µM, first compound 1 µM
[11] = second compound 0.1 µM, first compound 3.16 µM
[12] = second compound 0.1 µM, first compound 10 µM
[13] = second compound 0.316 µM, first compound 0.0316 µM
[14] = second compound 0.316 µM, first compound 0.1 µM
[15] = second compound 0.316 µM, first compound 0.316 µM
[16] = second compound 0.316 µM, first compound 1 µM
[17] = second compound 0.316 µM, first compound 3.16 µM
[18] = second compound 0.316 µM, first compound 10 µM
[19] = second compound 1 µM, first compound 0.0316 µM
[20] = second compound 1 µM, first compound 0.1 µM
[21] = second compound 1 µM, first compound 0.316 µM
[22] = second compound 1 µM, first compound 1 µM
[23] = second compound 1 µM, first compound 3.16 µM
[24] = second compound 1 µM, first compound 10 µM
[25] = second compound 3.16 µM, first compound 0.0316 µM
[26] = second compound 3.16 µM, first compound 0.1 µM
[27] = second compound 3.16 µM, first compound 0.316 µM
[28] = second compound 3.16 µM, first compound 1 µM
[29] = second compound 3.16 µM, first compound 3.16 µM
[30] = second compound 3.16 µM, first compound 10 µM
[31] = second compound 10 µM, first compound 0.0316 µM
[32] = second compound 10 µM, first compound 0.1 µM
[33] = second compound 10 µM, first compound 0.316 µM
[34] = second compound 10 µM, first compound 1 µM
[35] = second compound 10 µM, first compound 3.16 µM
[36] = second compound 10 µM, first compound 10 µM
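Note: spheroids exposed to agents for seven days before readout.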
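Throughout, for viability, T/C: percent viability relative to DMSO vehicle control taken as 100%.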

C=CC(=O)N1CCN(c2nc(=O)n(-c3c(C)ccnc3C(C)C)c3nc(-c4c(O)cccc4F)c(F)cc23)C(C)C1 (stereo not given) + Cc1nc(NC(=O)N2CCCC2C(N)=O)sc1-c1ccnc(C(C)(C)C(F)(F)F)c1
IC50 (second compound 0.0316 µM): > 10000 nM
IC50 (second compound 0.1 µM): > 10000 nM
IC50 (second compound 0.316 µM): > 10000 nM
IC50 (second compound 1 µM): > 10000 nM
IC50 (second compound 3.16 µM): < 31.6 nM
IC50 (second compound 10 µM): < 31.6 nM
viability, T/C [1]: 89.3%
viability, T/C [2]: 94.8%
viability, T/C [3]: 99.3%
viability, T/C [4]: 106%
viability, T/C [5]: 100%
viability, T/C [6]: 85%
viability, T/C [7]: 84.8%
viability, T/C [8]: 96.3%
viability, T/C [9]: 93%
viability, T/C [10]: 81.4%
viability, T/C [11]: 79.5%
viability, T/C [12]: 80.2%
viability, T/C [13]: 95.2%
viability, T/C [14]: 96.7%
viability, T/C [15]: 70.1%
viability, T/C [16]: 82.2%
viability, T/C [17]: 67.5%
viability, T/C [18]: 92.6%
viability, T/C [19]: 71.7%
viability, T/C [20]: 92.2%
viability, T/C [21]: 79.4%
viability, T/C [22]: 77.3%
viability, T/C [23]: 80.9%
viability, T/C [24]: 79.8%
viability, T/C [25]: 39.4%
viability, T/C [26]: 51.1%
viability, T/C [27]: 71.8%
viability, T/C [28]: 34.1%
viability, T/C [29]: 60.9%
viability, T/C [30]: 67.9%
viability, T/C [31]: 24%
viability, T/C [32]: 41.6%
viability, T/C [33]: 24.9%
viability, T/C [34]: 41.8%
viability, T/C [35]: 37.6%
viability, T/C [36]: 27.2%

CC(C)NCC(C(=O)N1CCN(c2ncnc3c2C(C)CC3O)CC1)c1ccc(Cl)cc1 (stereo not given) + Cc1nc(NC(=O)N2CCCC2C(N)=O)sc1-c1ccnc(C(C)(C)C(F)(F)F)c1
IC50 (second compound 0.0316 µM): > 10000 nM
IC50 (second compound 0.1 µM): > 10000 nM
IC50 (second compound 0.316 µM): > 10000 nM
IC50 (second compound 1 µM): > 10000 nM
IC50 (second compound 3.16 µM): 1190 nM
IC50 (second compound 10 µM): < 31.6 nM
viability, T/C [1]: 95.8%
viability, T/C [2]: 104%
viability, T/C [3]: 94.6%
viability, T/C [4]: 86.5%
viability, T/C [5]: 94.3%
viability, T/C [6]: 56.5%
viability, T/C [7]: 91.3%
viability, T/C [8]: 94.7%
viability, T/C [9]: 96.4%
viability, T/C [10]: 83.2%
viability, T/C [11]: 91.6%
viability, T/C [12]: 51.4%
viability, T/C [13]: 87.3%
viability, T/C [14]: 82.3%
viability, T/C [15]: 80.7%
viability, T/C [16]: 76.6%
viability, T/C [17]: 74.1%
viability, T/C [18]: 72.8%
viability, T/C [19]: 84.5%
viability, T/C [20]: 75%
viability, T/C [21]: 60.7%
viability, T/C [22]: 71.7%
viability, T/C [23]: 73.4%
viability, T/C [24]: 62.1%
viability, T/C [25]: 63.1%
viability, T/C [26]: 29.6%
viability, T/C [27]: 69.9%
viability, T/C [28]: 59%
viability, T/C [29]: 33.6%
viability, T/C [30]: 43%
viability, T/C [31]: 22.1%
viability, T/C [32]: 19.2%
viability, T/C [33]: 28.3%
viability, T/C [34]: 22.6%
viability, T/C [35]: 31.3%
viability, T/C [36]: 23.9%

CCN1CCN(Cc2ccc(Nc3ncc(F)c(-c4cc(F)c5nc(C)n(C(C)C)c5c4)n3)nc2)CC1 + Cc1nc(NC(=O)N2CCCC2C(N)=O)sc1-c1ccnc(C(C)(C)C(F)(F)F)c1
IC50 (second compound 0.0316 µM): 547 nM
IC50 (second compound 0.1 µM): 658 nM
IC50 (second compound 0.316 µM): 164 nM
IC50 (second compound 1 µM): 36 nM
IC50 (second compound 3.16 µM): 7.26 nM
IC50 (second compound 10 µM): < 3.16 nM
viability, T/C (second compound 0.0316 µM, first compound 0.00316 µM): 67.3%
viability, T/C (second compound 0.0316 µM, first compound 0.01 µM): 90.7%
viability, T/C [1]: 74%
viability, T/C [2]: 79.7%
viability, T/C [3]: 59.5%
viability, T/C [4]: 39.6%
viability, T/C (second compound 0.1 µM, first compound 0.00316 µM): 72.5%
viability, T/C (second compound 0.1 µM, first compound 0.01 µM): 86.7%
viability, T/C [7]: 67.5%
viability, T/C [8]: 52.6%
viability, T/C [9]: 66.6%
viability, T/C [10]: 43.4%
viability, T/C (second compound 0.316 µM, first compound 0.00316 µM): 94.8%
viability, T/C (second compound 0.316 µM, first compound 0.01 µM): 79.2%
viability, T/C [13]: 71.9%
viability, T/C [14]: 47.6%
viability, T/C [15]: 49.5%
viability, T/C [16]: 30.7%
viability, T/C (second compound 1 µM, first compound 0.00316 µM): 52.5%
viability, T/C (second compound 1 µM, first compound 0.01 µM): 49.5%
viability, T/C [19]: 49.7%
viability, T/C [20]: 49.2%
viability, T/C [21]: 38.4%
viability, T/C [22]: 21.3%
viability, T/C (second compound 3.16 µM, first compound 0.00316 µM): 55.4%
viability, T/C (second compound 3.16 µM, first compound 0.01 µM): 49.1%
viability, T/C [25]: 37.7%
viability, T/C [26]: 36.6%
viability, T/C [27]: 25%
viability, T/C [28]: 24.4%
viability, T/C (second compound 10 µM, first compound 0.00316 µM): 28.1%
viability, T/C (second compound 10 µM, first compound 0.01 µM): 21.9%
viability, T/C [31]: 27.6%
viability, T/C [32]: 21.1%
viability, T/C [33]: 21.3%
viability, T/C [34]: 20.7%

Cn1ncc(Cl)c1-c1cc(C(=O)NC(CN)Cc2cccc(F)c2)sc1Cl (stereo not given) + Cc1nc(NC(=O)N2CCCC2C(N)=O)sc1-c1ccnc(C(C)(C)C(F)(F)F)c1
IC50 (second compound 0.0316 µM): 5530 nM
IC50 (second compound 0.1 µM): 3310 nM
IC50 (second compound 0.316 µM): 4030 nM
IC50 (second compound 1 µM): 2630 nM
IC50 (second compound 3.16 µM): 558 nM
IC50 (second compound 10 µM): < 31.6 nM
viability, T/C [1]: 110%
viability, T/C [2]: 90.8%
viability, T/C [3]: 87.1%
viability, T/C [4]: 77.2%
viability, T/C [5]: 70%
viability, T/C [6]: 34.1%
viability, T/C [7]: 102%
viability, T/C [8]: 86.6%
viability, T/C [9]: 82.8%
viability, T/C [10]: 57.2%
viability, T/C [11]: 53.5%
viability, T/C [12]: 39.3%
viability, T/C [13]: 85.3%
viability, T/C [14]: 94%
viability, T/C [15]: 76.2%
viability, T/C [16]: 64.4%
viability, T/C [17]: 62.1%
viability, T/C [18]: 27.7%
viability, T/C [19]: 81.9%
viability, T/C [20]: 74.3%
viability, T/C [21]: 72.7%
viability, T/C [22]: 75.2%
viability, T/C [23]: 45.3%
viability, T/C [24]: 18.7%
viability, T/C [25]: 62%
viability, T/C [26]: 69.9%
viability, T/C [27]: 55.3%
viability, T/C [28]: 38.1%
viability, T/C [29]: 35.3%
viability, T/C [30]: 14.4%
viability, T/C [31]: 29.3%
viability, T/C [32]: 29.4%
viability, T/C [33]: 23%
viability, T/C [34]: 25.5%
viability, T/C [35]: 30%
viability, T/C [36]: 2.94%

Cn1nccc1Nc1nccc(-c2ccn(C(CO)c3ccc(Cl)c(F)c3)c(=O)c2)n1 (stereo not given) + Cc1nc(NC(=O)N2CCCC2C(N)=O)sc1-c1ccnc(C(C)(C)C(F)(F)F)c1
IC50 (second compound 0.0316 µM): > 10000 nM
IC50 (second compound 0.1 µM): 8610 nM
IC50 (second compound 0.316 µM): > 10000 nM
IC50 (second compound 1 µM): 3160 nM
IC50 (second compound 3.16 µM): 853 nM
IC50 (second compound 10 µM): < 31.6 nM
viability, T/C [1]: 82.9%
viability, T/C [2]: 98.6%
viability, T/C [3]: 73%
viability, T/C [4]: 91.6%
viability, T/C [5]: 68.9%
viability, T/C [6]: 58.2%
viability, T/C [7]: 92.6%
viability, T/C [8]: 100%
viability, T/C [9]: 68.7%
viability, T/C [10]: 83.3%
viability, T/C [11]: 82.7%
viability, T/C [12]: 45.2%
viability, T/C [13]: 94.6%
viability, T/C [14]: 63.8%
viability, T/C [15]: 67.9%
viability, T/C [16]: 65.7%
viability, T/C [17]: 57.7%
viability, T/C [18]: 47.8%
viability, T/C [19]: 89.2%
viability, T/C [20]: 81.5%
viability, T/C [21]: 31.1%
viability, T/C [22]: 57.6%
viability, T/C [23]: 52.3%
viability, T/C [24]: 64.8%
viability, T/C [25]: 68.2%
viability, T/C [26]: 58.7%
viability, T/C [27]: 54.8%
viability, T/C [28]: 53.8%
viability, T/C [29]: 38.4%
viability, T/C [30]: 34.8%
viability, T/C [31]: 33.8%
viability, T/C [32]: 35.6%
viability, T/C [33]: 46%
viability, T/C [34]: 22.7%
viability, T/C [35]: 14.5%
viability, T/C [36]: 17.5%
